Data published in ChEMBL document CHEMBL1201862, “PubChem BioAssay data set” (2004).
Calls of active or inactive are those of the source.

What was measured:
[1] = biological target: 5-hydroxytryptamine receptor 2A (Mus musculus, UniProt P35363); assay type: functional, cell-based;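 also: CHO-K1 cells with tagged receptor and beta-arrestin; agonist potency measured as compound-induced activation of the receptor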
Mu-type opioid receptor = Mu-type opioid receptor (Homo sapiens, UniProt P35372); assay type: functional, cell-based;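 also: U2OS cells with beta-arrestin recruitment to OPRM1 by beta-gal complementation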
[2] = biological target: T1, Short transient receptor potential channel 4 (Mus musculus, UniProt Q9QUQ5); test: block of DAMGO-driven TRPC4 calcium entry – cell-based, HEK293 TRPC4/mu-opioid, Fluo-4 calcium, dose response (AID 434942); assay type: functional;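 also: potency of inhibitors blocking the TRPC4 calcium response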
T1 sequence (Q9QUQ5 whole entry): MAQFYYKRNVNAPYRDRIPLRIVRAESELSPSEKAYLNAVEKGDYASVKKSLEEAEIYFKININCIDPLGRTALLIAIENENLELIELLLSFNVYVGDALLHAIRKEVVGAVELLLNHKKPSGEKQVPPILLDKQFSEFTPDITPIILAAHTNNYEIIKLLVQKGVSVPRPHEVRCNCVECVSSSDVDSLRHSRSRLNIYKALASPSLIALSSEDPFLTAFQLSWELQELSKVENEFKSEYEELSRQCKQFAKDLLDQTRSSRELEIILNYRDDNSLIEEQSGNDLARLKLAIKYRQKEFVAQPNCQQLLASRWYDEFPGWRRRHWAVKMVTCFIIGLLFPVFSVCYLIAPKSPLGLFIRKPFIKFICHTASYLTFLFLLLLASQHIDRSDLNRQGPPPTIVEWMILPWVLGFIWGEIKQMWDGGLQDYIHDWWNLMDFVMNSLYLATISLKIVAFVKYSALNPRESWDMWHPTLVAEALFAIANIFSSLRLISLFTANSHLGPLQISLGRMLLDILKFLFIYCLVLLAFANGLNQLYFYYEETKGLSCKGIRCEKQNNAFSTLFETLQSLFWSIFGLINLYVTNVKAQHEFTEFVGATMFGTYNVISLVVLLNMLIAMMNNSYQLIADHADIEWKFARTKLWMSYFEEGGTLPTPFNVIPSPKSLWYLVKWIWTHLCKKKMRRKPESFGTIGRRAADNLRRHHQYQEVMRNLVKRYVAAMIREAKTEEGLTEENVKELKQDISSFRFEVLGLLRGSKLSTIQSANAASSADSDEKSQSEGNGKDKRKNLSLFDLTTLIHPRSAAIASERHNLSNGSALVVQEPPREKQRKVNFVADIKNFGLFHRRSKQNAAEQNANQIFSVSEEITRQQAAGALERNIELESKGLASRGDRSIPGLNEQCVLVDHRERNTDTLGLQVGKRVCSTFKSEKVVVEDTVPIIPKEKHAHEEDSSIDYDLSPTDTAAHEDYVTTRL

[3] = biological target: T2, Long-chain-fatty-acid--AMP ligase FadD28 (Mycobacterium tuberculosis, UniProt P9WQ59); test: Fluorescence polarization aasay to screen for inhibitors that compete for the binding of FadD28 to a bisubstrate Measured in Biochemical System Using Plate Reader - 2147-01_Inhibitor_Dose_CherryPick_Activity.; assay type: functional, Mycobacterium tuberculosis H37Rv
T2 sequence (P9WQ59 whole entry): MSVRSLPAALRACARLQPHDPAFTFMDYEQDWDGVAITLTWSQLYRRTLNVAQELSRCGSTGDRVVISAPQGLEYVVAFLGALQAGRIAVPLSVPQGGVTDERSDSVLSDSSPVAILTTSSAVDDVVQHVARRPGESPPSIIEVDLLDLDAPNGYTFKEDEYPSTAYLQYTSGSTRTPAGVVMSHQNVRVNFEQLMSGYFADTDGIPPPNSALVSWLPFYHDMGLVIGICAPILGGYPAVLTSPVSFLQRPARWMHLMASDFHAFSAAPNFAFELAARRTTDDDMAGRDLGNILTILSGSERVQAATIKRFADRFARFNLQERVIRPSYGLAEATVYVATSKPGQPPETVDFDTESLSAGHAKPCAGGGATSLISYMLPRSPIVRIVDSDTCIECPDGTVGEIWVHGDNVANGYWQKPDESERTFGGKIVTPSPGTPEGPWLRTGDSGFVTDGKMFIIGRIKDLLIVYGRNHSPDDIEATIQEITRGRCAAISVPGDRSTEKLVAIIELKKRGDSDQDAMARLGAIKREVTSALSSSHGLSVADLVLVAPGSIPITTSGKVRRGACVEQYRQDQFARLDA

[4] = biological target: T3, Rac GTPase-activating protein 1 (Homo sapiens, UniProt Q9H0H5); test: blockers of MgcRacGAP-driven Rac1 GTP hydrolysis – biochemical, ADP Hunter fluorescence, primary and confirmatory, confirmation (AID 624330); assay type: functional
T3 sequence (Q9H0H5 whole entry): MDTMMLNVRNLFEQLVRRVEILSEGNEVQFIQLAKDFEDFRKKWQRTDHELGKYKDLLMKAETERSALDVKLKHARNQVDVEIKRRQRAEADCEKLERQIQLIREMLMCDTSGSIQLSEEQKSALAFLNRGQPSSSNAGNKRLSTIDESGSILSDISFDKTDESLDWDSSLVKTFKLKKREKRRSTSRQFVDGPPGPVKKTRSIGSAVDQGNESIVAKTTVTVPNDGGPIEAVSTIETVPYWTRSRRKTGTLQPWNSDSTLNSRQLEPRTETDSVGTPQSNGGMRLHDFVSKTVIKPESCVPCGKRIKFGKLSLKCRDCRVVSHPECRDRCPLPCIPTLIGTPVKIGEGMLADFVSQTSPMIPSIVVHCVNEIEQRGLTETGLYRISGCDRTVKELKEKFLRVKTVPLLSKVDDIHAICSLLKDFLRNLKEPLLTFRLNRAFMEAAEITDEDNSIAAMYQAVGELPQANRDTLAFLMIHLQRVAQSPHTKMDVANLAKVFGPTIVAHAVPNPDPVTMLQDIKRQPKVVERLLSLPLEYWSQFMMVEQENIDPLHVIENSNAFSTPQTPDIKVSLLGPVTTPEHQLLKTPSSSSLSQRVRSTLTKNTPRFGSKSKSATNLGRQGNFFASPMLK

[5] = viability loss in HeLa cells – cytotoxicity control for MgcRacGAP inhibitor project, dose response (AID 624300); assay type: functional
[6] = biological target: T4, Corticotropin-releasing factor receptor 2/Corticotropin-releasing factor-binding protein (Homo sapiens, UniProt P24387+Q13324); test: activators of CRF receptor 2 with binding protein – uHTS hits, confirmation (AID 602473); assay type: functional; details: read-out: EC50_Mean
T4 sequence (Q13324 whole entry): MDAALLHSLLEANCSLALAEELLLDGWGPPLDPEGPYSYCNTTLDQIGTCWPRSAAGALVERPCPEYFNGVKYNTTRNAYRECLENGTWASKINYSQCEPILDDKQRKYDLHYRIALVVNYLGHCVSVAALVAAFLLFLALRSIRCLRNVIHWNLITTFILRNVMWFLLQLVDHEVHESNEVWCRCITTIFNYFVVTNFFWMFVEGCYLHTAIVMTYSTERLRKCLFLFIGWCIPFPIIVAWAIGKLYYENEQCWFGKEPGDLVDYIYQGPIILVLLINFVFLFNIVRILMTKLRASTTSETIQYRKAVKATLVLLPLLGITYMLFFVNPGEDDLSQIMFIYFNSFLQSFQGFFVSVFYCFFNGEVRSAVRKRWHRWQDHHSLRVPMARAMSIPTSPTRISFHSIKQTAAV
T4 sequence (P24387 whole entry): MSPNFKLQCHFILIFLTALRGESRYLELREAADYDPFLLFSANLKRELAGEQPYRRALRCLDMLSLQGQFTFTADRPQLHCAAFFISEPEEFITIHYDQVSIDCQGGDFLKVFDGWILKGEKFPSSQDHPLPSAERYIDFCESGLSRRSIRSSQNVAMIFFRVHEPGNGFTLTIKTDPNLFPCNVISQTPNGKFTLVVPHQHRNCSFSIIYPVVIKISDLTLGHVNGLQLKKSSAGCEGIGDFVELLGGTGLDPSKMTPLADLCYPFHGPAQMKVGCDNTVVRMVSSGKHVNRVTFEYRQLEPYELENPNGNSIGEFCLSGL

[7] = biological target: T5, Heat shock factor protein 1 (Mus musculus, UniProt P38532); test: enhancement of HSF1-driven luciferase signal – cell-based, NIH3T3, luminescence, dose retest, confirmation (AID 435004); assay type: functional;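 also: stress induced by proteasome inhibitor MG132 added 30 min after compound; luciferase reporter driven by HSF1 response element in NIH3T3 cells; actives raise luminescence as potentiators of the MG132 stress response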
T5 sequence (P38532 whole entry): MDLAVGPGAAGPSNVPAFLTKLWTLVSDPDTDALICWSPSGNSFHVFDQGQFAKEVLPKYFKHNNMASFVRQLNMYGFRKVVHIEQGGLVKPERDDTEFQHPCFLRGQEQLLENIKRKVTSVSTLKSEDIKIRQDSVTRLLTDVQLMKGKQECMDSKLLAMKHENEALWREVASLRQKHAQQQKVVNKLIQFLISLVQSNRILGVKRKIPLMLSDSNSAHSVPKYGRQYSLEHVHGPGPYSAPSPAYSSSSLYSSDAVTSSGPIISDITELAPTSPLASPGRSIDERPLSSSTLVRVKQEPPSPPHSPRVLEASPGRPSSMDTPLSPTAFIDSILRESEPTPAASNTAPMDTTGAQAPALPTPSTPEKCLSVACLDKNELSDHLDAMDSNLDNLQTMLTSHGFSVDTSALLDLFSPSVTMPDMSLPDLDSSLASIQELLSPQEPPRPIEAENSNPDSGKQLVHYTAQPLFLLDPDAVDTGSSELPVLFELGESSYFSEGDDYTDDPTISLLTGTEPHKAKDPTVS

[8] = biological target: T4, Corticotropin-releasing factor receptor 2/Corticotropin-releasing factor-binding protein; test: Dose Response confirmation of uHTS hits for small molecule antagonists of the CRF-binding protein and CRF-R2 receptor complex.; assay type: functional; details: read-out: IC50_Mean
[9] = biological target: ADP-ribosylation factor GTPase-activating protein 1 (Rattus norvegicus, UniProt Q62848); test: Fluorescence polarization-based biochemical high throughput dose response screening assay to identify inhibitors of ADP-ribosylation factor GTPase activating protein 1 (ARFGAP1).; assay type: functional
[10] = biological target: Arf-GAP with SH3 domain, ANK repeat and PH domain-containing protein 1 (Homo sapiens, UniProt Q9ULH1); assay type: functional;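 also: biochemical fluorescence polarization dose–response screen measuring inhibition of ASAP1; ASAP1 GAP domain stimulating GTP hydrolysis by truncated human ARF1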
Albumin = Albumin (Bos taurus, UniProt P02769); test: Counterscreen for inhibitors of T-cell receptor (TCR)-CD3 interaction: Fluorescence-based biochemical high throughput dose response assay to identify inhibitors of T-cell receptor (TCR)-CD3 interaction using a TAMRA-labeled BSA probe.; assay type: functional
[11] = biological target: T6, DNA repair protein RAD52 homolog (Homo sapiens, UniProt P43351); assay type: functional, biochemical
T6 sequence (P43351 whole entry): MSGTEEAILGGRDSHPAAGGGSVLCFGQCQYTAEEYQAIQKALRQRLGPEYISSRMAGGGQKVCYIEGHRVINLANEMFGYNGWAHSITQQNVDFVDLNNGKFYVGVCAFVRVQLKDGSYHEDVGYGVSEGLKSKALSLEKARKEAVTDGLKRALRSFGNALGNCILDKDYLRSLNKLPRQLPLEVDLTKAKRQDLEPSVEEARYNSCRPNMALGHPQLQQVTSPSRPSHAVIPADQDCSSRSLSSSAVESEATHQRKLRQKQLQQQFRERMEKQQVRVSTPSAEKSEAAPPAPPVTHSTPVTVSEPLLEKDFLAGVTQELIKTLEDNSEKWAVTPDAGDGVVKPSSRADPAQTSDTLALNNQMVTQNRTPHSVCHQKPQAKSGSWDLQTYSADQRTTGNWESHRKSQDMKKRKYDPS

Chain of Mu-type opioid receptor (P35372 whole entry): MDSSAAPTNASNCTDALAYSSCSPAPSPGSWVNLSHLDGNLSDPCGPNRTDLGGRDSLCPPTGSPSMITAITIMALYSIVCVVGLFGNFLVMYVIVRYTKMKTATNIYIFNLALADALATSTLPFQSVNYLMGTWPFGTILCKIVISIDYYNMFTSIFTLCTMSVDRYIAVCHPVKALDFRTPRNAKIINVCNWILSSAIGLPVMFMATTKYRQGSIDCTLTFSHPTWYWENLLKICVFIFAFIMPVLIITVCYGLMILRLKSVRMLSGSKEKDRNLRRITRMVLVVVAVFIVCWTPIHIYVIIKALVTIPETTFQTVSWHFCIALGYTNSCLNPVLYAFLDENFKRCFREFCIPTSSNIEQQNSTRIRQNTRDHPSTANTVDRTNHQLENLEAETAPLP
Chain of 5-hydroxytryptamine receptor 2A (P35363 whole entry): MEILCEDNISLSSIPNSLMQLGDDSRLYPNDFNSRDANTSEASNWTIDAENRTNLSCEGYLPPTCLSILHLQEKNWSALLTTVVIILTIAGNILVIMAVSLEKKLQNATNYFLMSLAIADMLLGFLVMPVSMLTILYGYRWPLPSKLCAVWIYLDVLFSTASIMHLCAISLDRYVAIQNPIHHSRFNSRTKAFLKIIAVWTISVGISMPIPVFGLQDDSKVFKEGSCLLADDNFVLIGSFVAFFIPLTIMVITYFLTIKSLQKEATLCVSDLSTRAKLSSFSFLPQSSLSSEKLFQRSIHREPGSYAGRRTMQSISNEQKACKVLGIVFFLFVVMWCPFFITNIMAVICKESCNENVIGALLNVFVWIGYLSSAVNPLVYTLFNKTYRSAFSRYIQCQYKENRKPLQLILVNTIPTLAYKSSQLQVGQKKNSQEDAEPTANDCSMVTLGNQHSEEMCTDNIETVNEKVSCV
Chain of Arf-GAP with SH3 domain, ANK repeat and PH domain-containing protein 1 (Q9ULH1 whole entry, the tested form may be a part): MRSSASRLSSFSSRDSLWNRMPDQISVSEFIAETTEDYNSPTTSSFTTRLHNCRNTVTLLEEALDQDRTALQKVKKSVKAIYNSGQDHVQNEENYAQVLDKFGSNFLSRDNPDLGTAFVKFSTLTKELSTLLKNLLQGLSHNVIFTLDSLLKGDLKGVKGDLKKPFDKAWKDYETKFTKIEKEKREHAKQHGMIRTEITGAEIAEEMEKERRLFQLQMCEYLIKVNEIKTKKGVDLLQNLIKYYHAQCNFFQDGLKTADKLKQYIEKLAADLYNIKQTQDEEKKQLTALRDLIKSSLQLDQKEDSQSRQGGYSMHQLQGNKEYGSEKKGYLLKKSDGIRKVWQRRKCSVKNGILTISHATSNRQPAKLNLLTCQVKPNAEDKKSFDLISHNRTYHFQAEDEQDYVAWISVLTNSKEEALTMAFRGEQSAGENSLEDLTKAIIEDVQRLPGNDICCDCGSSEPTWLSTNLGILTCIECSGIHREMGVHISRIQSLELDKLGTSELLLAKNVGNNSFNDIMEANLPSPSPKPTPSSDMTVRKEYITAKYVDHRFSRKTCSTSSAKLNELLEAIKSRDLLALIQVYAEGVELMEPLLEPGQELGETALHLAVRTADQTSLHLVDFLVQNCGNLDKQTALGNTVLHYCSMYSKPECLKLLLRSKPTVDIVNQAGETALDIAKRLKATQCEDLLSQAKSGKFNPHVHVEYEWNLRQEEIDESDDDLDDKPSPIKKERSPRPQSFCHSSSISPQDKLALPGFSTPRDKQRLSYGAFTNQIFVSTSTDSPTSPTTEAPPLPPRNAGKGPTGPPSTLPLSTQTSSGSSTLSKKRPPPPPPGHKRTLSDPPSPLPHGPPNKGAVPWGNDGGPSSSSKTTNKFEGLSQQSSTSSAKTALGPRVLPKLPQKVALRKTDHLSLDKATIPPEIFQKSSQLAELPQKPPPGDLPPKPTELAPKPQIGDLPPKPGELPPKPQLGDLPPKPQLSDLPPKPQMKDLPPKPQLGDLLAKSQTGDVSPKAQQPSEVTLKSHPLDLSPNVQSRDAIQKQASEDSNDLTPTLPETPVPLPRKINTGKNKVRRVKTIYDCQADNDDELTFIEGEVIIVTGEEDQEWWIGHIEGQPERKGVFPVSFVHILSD
Chain of Albumin (P02769 whole entry): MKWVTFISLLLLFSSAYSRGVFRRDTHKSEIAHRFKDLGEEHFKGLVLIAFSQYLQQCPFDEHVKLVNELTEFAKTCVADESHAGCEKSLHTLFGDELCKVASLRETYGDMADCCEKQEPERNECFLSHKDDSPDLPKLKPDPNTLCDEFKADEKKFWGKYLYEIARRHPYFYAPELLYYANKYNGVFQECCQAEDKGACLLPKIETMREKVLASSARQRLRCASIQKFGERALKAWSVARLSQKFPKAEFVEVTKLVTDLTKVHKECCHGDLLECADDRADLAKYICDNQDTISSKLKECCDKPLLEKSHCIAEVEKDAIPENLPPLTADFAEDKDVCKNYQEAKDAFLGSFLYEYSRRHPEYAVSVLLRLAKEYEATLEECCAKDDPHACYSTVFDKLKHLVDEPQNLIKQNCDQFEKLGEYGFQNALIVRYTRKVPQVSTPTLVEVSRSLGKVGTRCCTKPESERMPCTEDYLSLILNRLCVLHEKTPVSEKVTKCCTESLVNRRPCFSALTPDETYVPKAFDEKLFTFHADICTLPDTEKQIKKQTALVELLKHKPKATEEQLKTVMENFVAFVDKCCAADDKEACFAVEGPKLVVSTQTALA
Chain of ADP-ribosylation factor GTPase-activating protein 1 (Q62848 whole entry, the tested form may be a part): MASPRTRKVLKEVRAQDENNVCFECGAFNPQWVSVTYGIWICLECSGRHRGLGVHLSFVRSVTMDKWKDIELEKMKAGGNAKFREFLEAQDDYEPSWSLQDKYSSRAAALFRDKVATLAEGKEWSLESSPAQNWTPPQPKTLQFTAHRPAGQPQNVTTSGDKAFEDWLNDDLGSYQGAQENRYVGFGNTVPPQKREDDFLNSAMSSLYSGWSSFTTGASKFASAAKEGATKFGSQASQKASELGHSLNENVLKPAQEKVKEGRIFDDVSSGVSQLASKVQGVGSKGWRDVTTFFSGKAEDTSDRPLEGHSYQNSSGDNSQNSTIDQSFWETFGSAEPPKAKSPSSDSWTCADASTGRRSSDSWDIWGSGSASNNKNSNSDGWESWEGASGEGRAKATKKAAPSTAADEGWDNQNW

SMILES: COc1ccc(CC2(CO)CCN(Cc3cc4ccccc4o3)CC2)cc1
- EC50 [1]: 1.07 µM (active)
- EC50 (Mu-type opioid receptor): 92.5 µM (inactive)

SMILES: CC(COc1ccccc1)N1CCC(CO)(Cc2ccccc2)CC1 (stereo unspecified)
- EC50 [1]: 0.59 µM (active)
- EC50 [2]: 5.96 µM (active)
- EC50 (Mu-type opioid receptor): 92.5 µM (inactive)

SMILES: CN(C)S(=O)(=O)c1cccc(C(=O)OCC(=O)Nc2sccc2C#N)c1
- AC50 [3]: > 100 µM (inactive)

SMILES: COc1ccc(CN2CCN(c3ccccn3)CC2)c(OC)c1
- EC50 [1]: 0.529 µM (active)
- EC50 (Mu-type opioid receptor): 92.5 µM (inactive)

SMILES: CCc1ccc(O)c(/N=C/c2ccccc2O)c1
- IC50 [4]: 36.9 µM (active)
- CC50 [5]: 100 µM (active)

SMILES: Cc1ccc(Cl)c(OCCCN(C)Cc2ccccc2)c1
- IC50 [4]: 165 µM (active)
- CC50 [5]: 100 µM (active)

SMILES: CN1c2ccccc2C(O)=C(C(S)=Nc2ccc(Cl)cc2)S1(=O)=O
- EC50 [6]: > 53 µM (inactive)
- EC50 [7]: > 260 µM (inconclusive)
- IC50 [8]: 24.7 µM (active)
- AC50 [3]: > 100 µM (inactive)

SMILES: O=Cc1ccc(N2N=C(c3ccccc3)CC2c2ccccc2)cc1 (stereo unspecified)
- AC50 [3]: 26.5 µM (active)

SMILES: O=C(COc1ccc2oc(-c3ccco3)cc(=O)c2c1)N1CCCCC1
- IC50 [9]: 28.5 µM (inactive)
- IC50 [10]: 22.4 µM (inactive)

SMILES: COc1ccc(C(=O)NC(=S)NNC(=O)c2ccc(O)cc2)cc1[N+](=O)[O-]
- IC50 (Albumin): > 94.1 µM (inactive)

SMILES: Nc1ccc(CC2=NCCN2)cc1
- AC50 [11]: 0.739 µM (active)
